Experimental data published in EP3156398A1, “AGONISTS OF THE CHEMOKINE RECEPTOR CXCR3” (Friedrich-Alexander-Universität Erlangen-Nürnberg, priority 2015, dated 2017).
Entries after “also recorded” stand apart in the source; their conditions may differ.

Tests used:
[1] = tested on: HEK293 cells transiently transfected with CXCR3; assay: Transwell migration assay; format: cell-based, human; conditions: for influence on CXCL11 induced migration: cells pre-incubated 15 minutes, compound in both chambers, CXCL11 as chemoattractant, Figure 5B; for induced migration compared to buffer control: compound applied to the source reservoir, on its own, 5 h, Figure 5A
Description: Transwell migration assay. HEK-293 cells were maintained in DMEM medium supplemented with 10% FBS and 1% penicillin/streptomycin. For DNA transfection, 5 µg plasmid DNA (CXCR3) was mixed with TE buffer to give a final of 105 µl solution and 15 µl CaCl2 (2M) was added. The DNA mixture was then dripped into 120 µl 2x HBSS solution, and the mixture was allowed to form calcium-phosphate precipitates for 45 minutes. The DNA/calcium-phosphate precipitate was dripped onto HEK293 cells (50% confluent in T25 flask), where the medium had been renewed and reduced to 1.5 ml 30 minutes prior to transfection. The cells were split and used for assays 48 h after transfection.
Migration of serum-starved HEK293 cell transiently transfected with CXCR3 was assessed using Transwell™ membranes (Costar; 8-µm pore). Filters were coated with 10 µg•mL^-1 fibronectin (in PBS 30 minutes at room temperature). The fibronectin solution was removed and the filters allowed to air-dry. The filters were placed in a 24-well dish that contained low serum (0.2%) DMEM supplemented with agonists or control buffer. HEK293 cells suspended in 0.2% serum DMEM containing test compounds were added to the upper chamber (1 × 10^5 cells/well). Cells were allowed to migrate for 5 h at 37 °C. Nonmigrated cells were removed from the top filter surface with a cotton swab. Migrated cells, attached to the bottom surface, were fixed in 3.7% formaldehyde (in PBS) and dyed with crystal violet. Transmigrated cells were counted in 5 predefined areas on the membrane using 20X objective.
To investigate the influence of FAUC1036 and FAUC1104 on CXCR3 induced migration, the inventors used these compounds alongside CXCL11 in a standard transwell assay with HEK293 cells transiently transfected with CXCR3. […] To test whether FAUC1036 and FAUC1104 influence CXCL11 induced migration, the inventors pre-incubated the cells with these compounds for 15 minutes and then set up the migration assay in the presence of either compound in both the top chamber (sink) containing the cells and in the lower chamber (source) containing CXCL11 as chemoattractant.

[2] = molecular target: T1, CXCR3-PK1 (Homo sapiens, UniProt P49682); assay: β-arrestin 2 recruitment assay (PathHunter, DiscoveRx), CXCR3-PK1 construct; format: cell-based; conditions: for CXCR3-PK1 pEC50 ± SEM: HEK293-T cells, PathHunter, two to three experiments in triplicate
T1 construct: expressed in transfected cells; host or cells: HEK293 cells stably expressing beta-gal enzyme acceptor (PathHunter, DiscoveRx), transiently transfected
T1 sequence (P49682 1-368): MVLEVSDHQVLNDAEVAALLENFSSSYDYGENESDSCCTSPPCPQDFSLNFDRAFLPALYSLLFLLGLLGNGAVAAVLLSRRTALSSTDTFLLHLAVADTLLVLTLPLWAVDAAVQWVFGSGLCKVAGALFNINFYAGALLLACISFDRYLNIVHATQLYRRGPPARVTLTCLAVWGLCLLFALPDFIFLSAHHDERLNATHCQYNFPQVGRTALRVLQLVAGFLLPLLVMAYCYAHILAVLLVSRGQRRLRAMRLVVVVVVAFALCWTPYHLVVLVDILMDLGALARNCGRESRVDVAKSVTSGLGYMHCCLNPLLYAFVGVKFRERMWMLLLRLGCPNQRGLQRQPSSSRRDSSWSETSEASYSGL
Outline: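 HEK293 cells stably expressing β-gal enzyme acceptor, transiently transfected with PK1-tagged wild-type CXCR3, seeded overnight at 37°C. Test compounds or CXCL11 at various concentrations in PBS pH 7.4 with 0.20% BSA, 4 h; detection mix 60 min at room temperature. β-gal fragment complementation read by chemiluminescence.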

[3] = molecular target: T2, CXCR3-eGFP (Homo sapiens, UniProt P49682); assay: Receptor internalization imaging (confocal laser scanning microscopy); format: cell-based; conditions: CXCL11 10 nM; FAUC1036 10 µM and 1 µM; one hour; Figure 4A
T2 construct: expressed in transfected cells; host or cells: HEK293T cells, transient
T2 sequence (P49682 1-368): T1 sequence (P49682 1-368)
Description: Receptor internalization imaging: The day before transfection HEK293T cells were seeded in 6-well plates at a density of 200,000 cells/well. Transient transfection of the C-terminally eGFP-tagged CXCR3 cDNA was performed using TransIT293(MIRUS). Cells were transferred to Poly-L-Lysine coated glass coverslips 24 h after transfection. 2 d after transfection, cells were washed with phosphate buffered saline (PBS) and treated with the endogenous chemokine CXCL11 or compound FAUC1036 at 37°C in 5% CO2 for 60min. Cells were fixed with 4% paraformaldehyde (RotiHistofix, Carl Roth) for 10min. […]
The effect of FAUC1036 on receptor internalization was investigated by scanning laser confocal microscopy and ELISA-based assay. […] The quantification of receptor internalization upon the treatment with the endogenous agonists and with either β-arrestin 2 biased FAUC1036 or G-protein biased FAUC1104 was performed with ELISA based assay. The HEK293T cells transiently expressing FLAG-CXCR3 were stimulated with compounds and chemokines for one hour, washed, fixed and the amount of FLAG-CXCR3 present on the surface was detected by anti-FLAG antibody.

Row | SMILES | chemotaxis (result in words) [1] | influence on CXCL11 induced migration [1] | induced migration compared to buffer control [1] | β-arrestin 2 recruitment, intrinsic agonism (result in words) [2] | CXCR3-PK1 efficacy (%) ([2]; % of CXCL11 mediated effect, CXCR3-PK1, listed as 11/FAUC103 6) | Emax ([2]; % of CXCL11 mediated effect, CXCR3-PK1, read-out: CXCR3-PK1 efficacy (%) (converted)) | CXCR3-PK1 pEC50 ± SEM ([2]; CXCR3-PK1, listed as 11/FAUC103 6) | CXCR3-PK1 pEC50 ± SEM ([2]; CXCR3-PK1, listed as FAUC1036) | CXCR3 internalization (confocal microscopy) [3] | CXCR3-PK1 pEC50 ± SEM ([2]; CXCR3-PK1)
1 | CC(C)(C)OC(=O)N[C@@H](CCCCNC(=O)[C@@H]1Cc2ccccc2CN1C(=O)CCC(=O)c1ccccc1)C(=O)NCC(c1ccccc1)c1ccccc1 [Compound 11, Tert-butyl ((S)-1-((2,2-diphenylethyl)amino)-1-oxo-6-((S)-2-(4-oxo-4-phenylbutanoyl)-1,2,3,4-tertahydroisoquinoline-3-carboxamido)hexan-2-yl)carbamate] | weak chemotaxis | no antagonizing effect | approximately 0.25 fold | activates the β2-arrestin recruitment | 30±5% | 30% | 6.64±0.38 | 6.64 ± 0.38 | induced the CXCR3 internalization; also recorded: led to the internalization of a significant portion of the receptors | –
2 | COc1ccc(C(=O)CCC(=O)N2Cc3ccccc3C[C@H]2C(=O)NCCCC[C@H](NC(=O)OC(C)(C)C)C(=O)NCC(c2ccccc2)c2ccccc2)cc1 [Compound 14, Tert-butyl ((S)-1-((2,2-diphenylethyl)amino)-6-((S)-2-(4-(4-methoxyphenyl)-4-oxobutanoyl)-1,2,3,4-tetrahydroisoquinoline-3-carboxamido)-1-oxohexan-2-yl)carbomate] | strong chemotaxis | significantly higher CXCL11 induced migration | approximately 0.25 fold | complete loss of intrinsic agonistic properties | – | – | – | – | – | No effect
